Test [1] in a line: Inhibition of Staphylococcus aureus ATCC6538p Sortase A incubated for 1 hr by fluorescence spectrophotometric analysis.
Another test deals with HCT-116. The test is described as follows: Antiproliferative activity against human HCT116 cells assessed as reduction in cell viability incubated for 72 hr by SRB assay. The format is functional, cell-based. The settings on record: HCT-116, 72 h. On the technique in general: The SRB assay estimates cell density from bound dye.
Another test relates to Salmonella enterica. The test is described as follows: microbe, parasite or virus in culture. To be noted: ATCC 14028, 24 h.
A further test relates to Staphylococcus aureus. The test is described as follows: Antibacterial activity against Staphylococcus aureus ATCC 25923 assessed as inhibition of bacterial growth incubated for 24 hr by CLSI based broth microdilution method. The format is functional.
The subject of a further test is SK-HEP1. Kind of test: Antiproliferative activity against human SK-HEP1 cells assessed as reduction in cell viability incubated for 72 hr by SRB assay. The class given is functional, cell-based. The settings on record: SK-HEP1, 72 h.
A further test concerns Enterococcus faecium. The test is described as follows: Antibacterial activity against Enterococcus faecium ATCC 19434 assessed as inhibition of bacterial growth incubated for 24 hr by CLSI based broth microdilution method. The class given is functional. Background: Broth dilution looks for growth in wells or tubes with falling amounts of substance.
The subject of another test is Escherichia coli. The test is described as follows: Antibacterial activity against Escherichia coli ATCC 25922 assessed as inhibition of bacterial growth incubated for 24 hr by CLSI based broth microdilution method. The format is functional.
The next test relates to A498. The test is described as follows: Antiproliferative activity against human A498 cells assessed as reduction in cell viability incubated for 72 hr by SRB assay. The class given is functional, cell-based. To be noted: A498, 72 h.
The subject of a further test is MDA-MB-231. The test is described as follows: Antiproliferative activity against human MDA-MB-231 cells assessed as reduction in cell viability incubated for 72 hr by SRB assay. The format is functional, cell-based. To be noted: MDA-MB-231, 72 h.
Another test concerns Enterococcus faecalis. Kind of test: Antibacterial activity against Enterococcus faecalis ATCC 19433 assessed as inhibition of bacterial growth incubated for 24 hr by CLSI based broth microdilution method. The class given is functional.
The subject of another test is Trichophyton rubrum. Kind of test: Antifungal activity against Trichophyton rubrum NBRC 9185 assessed as fungal growth inhibition incubated for 96 hrs. The format is functional.
In a further test the test system is Klebsiella pneumoniae. The test is described as follows: Antibacterial activity against Klebsiella pneumoniae ATCC 10031 assessed as inhibition of bacterial growth incubated for 24 hr by CLSI based broth microdilution method. The format is functional.
In another test the test system is Aspergillus fumigatus. The test is described as follows: Antifungal activity against Aspergillus fumigatus HIC 6094 assessed as fungal growth inhibition incubated for 48 hrs. The format is functional.
The test system of the next test is Candida albicans. Kind of test: Antifungal activity against Candida albicans ATCC 10231 assessed as fungal growth inhibition incubated for 24 hrs. The format is functional.
A further test concerns SNU-638. Kind of test: Antiproliferative activity against human SNU-638 cells assessed as reduction in cell viability incubated for 72 hr by SRB assay. The format is functional, cell-based. To be noted: SNU-638, 72 h.
Test [2] relates to Mycobacterium tuberculosis. Kind of test: Antibacterial activity against Mycobacterium tuberculosis mc2 6230 assessed as bacterial growth inhibition incubated for 5 days by resazurin microtiter assay. The class given is functional. To be noted: mc2 6230, 120 h, time 5 day.
Test [3] concerns Trichophyton mentagrophytes. Kind of test: Antifungal activity against Trichophyton mentagrophytes IFM 40996 assessed as fungal growth inhibition incubated for 96 hrs. The class given is functional.

One may read the IC50 as the concentration needed to halve the response being measured. One may read the MIC50 as the lowest concentration that inhibits either 50% of growth or 50% of the strains tested, depending on the study.

Structures are written as SMILES. In brackets after ≈: the same amount, converted by molar mass.

Description for Salmonella enterica: Antibacterial activity against Salmonella enterica ATCC 14028 assessed as inhibition of bacterial growth incubated for 24 hr by CLSI based broth microdilution method

As for `Cc1c(Cl)c(O[C@@H]2O[C@@H](C)[C@@H](O)[C@@H](O)[C@H]2O)c2cc(O[C@@H]3O[C@@H](C)[C@@H](O)[C@@H](O)[C@H]3O)ccc2c1Cl`, the IC50 came out at 63.3 µg/mL (≈ 118 µM) in [1]; 5.6 µM with HCT-116; 14.7 µM in the test on SK-HEP1; 18.8 µM in the test on A498; 19.4 µM in the test on MDA-MB-231; 8.6 µM in the test on SNU-638. The MIC in the test on Salmonella enterica was 16 µg/mL (≈ 29.9 µM); in the test with Staphylococcus aureus, 8 µg/mL (≈ 14.9 µM); with Enterococcus faecium, 16 µg/mL (≈ 29.9 µM); in the test on Escherichia coli it was more than 128 µg/mL; in the test on Enterococcus faecalis it was 16 µg/mL (≈ 29.9 µM); in the test with Trichophyton rubrum, more than 128 µg/mL. Also, the MIC in the test with Klebsiella pneumoniae is 32 µg/mL (≈ 59.8 µM); with Aspergillus fumigatus it was more than 128 µg/mL; with Candida albicans, more than 128 µg/mL; in test [2], 15 µg/mL (≈ 28 µM); in test [3] it was more than 128 µg/mL.

`Cc1cc2c(c(O[C@@H]3O[C@@H](C)[C@@H](O)[C@@H](O)[C@H]3O)c1)-c1cc3c(c(O)c1[C@@H](O)C2)C(=O)c1c(O)cc(O)cc1C3=O`: the IC50 in the test on HCT-116, in the test on SK-HEP1, in the test on A498, in the test with MDA-MB-231 and in the test on SNU-638 was more than 20 µM throughout. Besides, the MIC in the test with Salmonella enterica was more than 128 µg/mL; with Staphylococcus aureus it was more than 128 µg/mL; with Enterococcus faecium it was 128 µg/mL (≈ 233 µM); in the test with Escherichia coli it was more than 128 µg/mL; in the test on Enterococcus faecalis it was more than 128 µg/mL; with Klebsiella pneumoniae, more than 128 µg/mL.

On to `CC1(C)S[C@@H]2[C@H](NC(=O)[C@H](N)c3ccccc3)C(=O)N2[C@H]1C(=O)O` [AMPICILLIN], for which the MIC amounted to 0.13 µg/mL (≈ 0.372 µM) against Salmonella enterica; 0.13 µg/mL (≈ 0.372 µM) in the test with Staphylococcus aureus; 0.25 µg/mL (≈ 0.715 µM) in the test with Enterococcus faecium; 8 µg/mL (≈ 22.9 µM) in the test on Escherichia coli; 0.5 µg/mL (≈ 1.43 µM) in the test on Enterococcus faecalis.

With `COc1nc2ccc(Br)cc2cc1[C@@H](c1ccccc1)[C@@](O)(CCN(C)C)c1cccc2ccccc12` [BEDAQUILINE], in test [2], the MIC50 stood at 0.5 µg/mL (≈ 0.9 µM).

Regarding `COc1cc([C@@H]2c3cc4c(cc3[C@@H](O[C@@H]3O[C@@H]5CO[C@@H](C)O[C@H]5[C@H](O)[C@H]3O)[C@H]3COC(=O)[C@H]23)OCO4)cc(OC)c1O` [ETOPOSIDE], the IC50 with HCT-116 was found to be 0.25 µM; in the test with SK-HEP1 it was 0.22 µM; in the test with A498 it was 0.23 µM; with MDA-MB-231 it was 2.8 µM; with SNU-638, 0.4 µM.

With `CN(C)[C@@H]1C(O)=C(C(N)=O)C(=O)[C@@]2(O)C(O)=C3C(=O)c4c(O)cccc4[C@@](C)(O)[C@H]3C[C@@H]12` [TETRACYCLINE], the MIC in the test with Klebsiella pneumoniae turned out to be 0.25 µg/mL (≈ 0.563 µM).
